Test results taken from patent US8648211B2, “Surface-modifying silicone elastomers” (priority 2009, dated 2014).
Blank lines part the entries; values can stand above or below the substance they belong to.

Columns and labels:
Type in all cases: physicochemical
[1] = Wetting of polystyrene by aqueous surfactant solutions (drop shape analyzer); conditions: for surface area of drop versus buffer control on polystyrene: 0.1 wt % (0.2 wt %, 0.5 wt %) in phosphate buffer pH=7
Protocol: (§1) ^1H NMR and ^13C NMR spectra were obtained on Bruker AC-200 (200-MHz) spectrometer. The molecular weight and mass spectra were determined on a Micromass Global Q-TOF Ultima (MALDI/CapLC-ESI Quadrupole Time of Flight) Mass Spectrometer. ATR-FTIR spectra were obtained on Bio-Rad FTS-40 (Fourier transform IR) spectrometer with an ATR accessory, on which a 45° rectangle ZnSe crystal was used. Surface water contact angle and surface tension were recorded using a Krüss V1.50 drop shape analyzer.
(§2) The ability of solutions of APS and related compounds to wet substrates was established using a drop shape analyzer. The contact angles and total spreading were established immediately after placing an aqueous drop volume ˜0.02 ml onto the surface of polystyrene (a new Petri dish) or a cleaned glass slide.
(§3) The ability of APS to disperse an aqueous phosphate buffer solution (pH=7) was determined on both hydrophobic (polystyrene) and hydrophilic (glass) surfaces. […] By contrast, when 1.5 wt % APS was included in the buffer, the maximum wetting diameter area on polystyrene was close to 6.16 cm^2, close to 200 times the area of the original buffer solution. Thus, APS has characteristics of typical superwetters.

[2] = Wetting of glass by aqueous surfactant solutions (drop shape analyzer); conditions: 0.1 wt % (0.2 wt %, 0.5 wt %) in phosphate buffer pH=7
Protocol: as §1, §2, §3

[3] = Water wetting (contact angle, spreading) on surface-modified PDMS
Protocol: as §1
(§4) The ability of water to wet out a variety of surface modified silicones was also established using the drop shape analyzer. […] Prior to each test, the coupons were thoroughly washed by DI water (FIG. 8).
The magnitude of spreading of APS in water was examined, and water on APS tethered to silicone, but not yet considered is the rate of spreading: rapid rates of spreading are also emblematic of superwetters. The water spreading rate on APS-modified PDMS was calculated according to a literature method^26 where: spreading rate=dD/dt (1) and, spreading area=dΔS/dt, (2) wherein D is the diameter of water droplet, S is the surface area covered by water and t is the spreading time. […] That is, replacing a terminal alcohol, acetate, etc., on the PEG block with an allyl group leads only to subtle changes in wetting properties. The situation is quite different when the superwetter is tethered.

[4] = Stability of aqueous surfactant solutions (decomposition in water)
Source text: The durability and environmental stability of modified surfaces are factors to consider for their use in real applications. While silicones are normally very stable to degradation, provided that the conditions remain near neutrality, branched trisiloxanes are notoriously unstable to hydrolysis.^27 Superwetters are usually added to the agents to be dispersed and then used immediately in pH 7 buffers. […] However, it was possible that tethering the superwetter to a surface would change the hydrolytic susceptibility.

[5] = Hydrolytic stability of APS-modified PDMS soaked in pH 4 and pH 10 solutions
Protocol: as §4
The hydrolytic stability of APS-modified PDMS elastomers was tested by soaking for extended periods of time in aqueous pH=4 and pH=10 solutions. […] However, while spreading is impeded after the surface is exposed to such conditions, the water contact angle can still decrease to 20° over 2-3 minutes. The tethered APS is thus more resistant to hydrolytic degradation than APS in solution. Further degradation while soaking the tethered APS in an aqueous solution occurred in the second week, after which no superspreading effect was observed: contact angles decreased only to about 60° over 1-2 minutes.

[6] = Shelf-life of APS-modified PDMS stored in air, tested monthly over 5 months
Source text: as §4
The shelf-life of the tethered APS was also established by testing spreading behavior monthly over a period of 5 months: samples of APS-modified surfaces were stored without any special protection on the laboratory bench. Subtle changes were observed over time. While the final contact angle (approaching zero) of water droplets was still achieved after 5 months, spreading rates changed appreciably. Rather than two distinct spreading rates, the droplet would spread to a specific radius, stop for several (typically up to 10) seconds and then spread to a new larger radius. This start-stop-start-stop process was repeated up to about 8 times at which point the approximately 0° contact angle was achieved.

[7] = 0.02 ml water on APS-modified silicone elastomer
[8] = PDMS 1 wt % DC1107 grafted with 14.7 wt % APS, 0.02 ml water

surface area of drop versus buffer control on polystyrene [1]: only marginally larger surface areas
surface area of drop versus buffer control on glass [2]: only marginally larger surface areas
Substance: bis-heptamethyltrisiloxanyl-PEG [SiPS]

surface area of drop versus buffer control on polystyrene [1]: only marginally larger surface areas
surface area of drop versus buffer control on glass [2]: only marginally larger surface areas
superwetting properties of compound or compound-modified surfaces ([3]; in aqueous solution and grafted to PDMS): do not have superwetting properties
lowest contact angle of grafted PDMS ([3]; pure DAP grafted to PDMS at 10, 20, 50% in THF): 80 °
Substance: Diallyl-Terminated PEO [DAP]

area of one drop after spreading ([1]; 1 wt % aqueous solution, from 0.03 cm^2, in 5 seconds, surface not stated, data not shown): 4.91 cm^2
maximum wetting diameter area on polystyrene ([1]; 1.5 wt % in aqueous phosphate buffer pH=7, 5 μl buffer control 0.031 cm^2): ~6.16 cm^2
wetting area relative to the area of the original buffer solution ([1]; 1.5 wt % in phosphate buffer pH=7, polystyrene): ~200 times
water contact angle after soaking, second week ([5]; APS-modified PDMS soaked in aqueous solution, reached over 1-2 minutes, no superspreading): about 60 °
water contact angle after soaking, first week ([5]; APS-modified PDMS soaked in pH=4 and pH=10 solutions, reached over 2-3 minutes): 20 °
spreading rate of water droplet, first 3 seconds ([3]; 0.02 ml water on APS-modified PDMS (1 wt % DC1107, 14.7 wt % APS)): ~1 mm s^−1
final area covered by water relative to original droplet size [3, 7]: about 15 times
water contact angle within about 1 minute [3, 7]: below 10 °
contact angle at the edge of the spread droplet when the drop ceases to migrate ([3]; APS-modified PDMS): ~0 °
increase of water spreading area during first 3 seconds [3, 8]: 8 times
spreading rate of water droplet, subsequent 30 seconds [3, 8]: approximately 0.1 mm s^−1
water contact angle on APS-grafted silicone surfaces within one minute ([3]; distilled water, in some cases, depends on surface coverage): nearly zero
Contact Angle (°) ([3]; water droplets 0.02 ml on modified PDMS prepared with 1% DC1107): 0 °
Wetting Diameter (mm) ([3]; water droplets 0.02 ml, initial radius ~1.0 mm, final diameter after 1 min, modified PDMS, 1% DC1107): 8 mm
final water contact angle after 5 months ([6]; APS-modified surface stored on the laboratory bench): approximately 0 °
time surface remained superhydrophilic ([6]; APS-modified surface, storage in air): at least 5 months
Substance: Allyl PEO Siloxane [APS]
spreading of aqueous solutions compared with commercial superwetter L77 ([1]; degree and velocity of spreading, surface not stated): approximately the same degree and at a similar velocity to the commercial superwetter L77
stability of aqueous solution [4]: decomposed in water over a few days to a week
